Experimental data from ChEMBL document CHEMBL1201862, “PubChem BioAssay data set” (2004).
Activity calls are given as the source filed them.

Assays:
[1] = molecular target: T1, Heat shock factor protein 1 (Mus musculus, UniProt P38532); assay: HSF1 potentiators in luciferase reporter cells, confirmation, cell-based, NIH3T3, luminescence, dose retest (AID 435004); assay type: functional;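 further: stress induced by proteasome inhibitor MG132 added 30 min after compound; luciferase reporter driven by HSF1 response element in NIH3T3 cells; actives raise luminescence as potentiators of the MG132 stress response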
T1 sequence (P38532 whole entry): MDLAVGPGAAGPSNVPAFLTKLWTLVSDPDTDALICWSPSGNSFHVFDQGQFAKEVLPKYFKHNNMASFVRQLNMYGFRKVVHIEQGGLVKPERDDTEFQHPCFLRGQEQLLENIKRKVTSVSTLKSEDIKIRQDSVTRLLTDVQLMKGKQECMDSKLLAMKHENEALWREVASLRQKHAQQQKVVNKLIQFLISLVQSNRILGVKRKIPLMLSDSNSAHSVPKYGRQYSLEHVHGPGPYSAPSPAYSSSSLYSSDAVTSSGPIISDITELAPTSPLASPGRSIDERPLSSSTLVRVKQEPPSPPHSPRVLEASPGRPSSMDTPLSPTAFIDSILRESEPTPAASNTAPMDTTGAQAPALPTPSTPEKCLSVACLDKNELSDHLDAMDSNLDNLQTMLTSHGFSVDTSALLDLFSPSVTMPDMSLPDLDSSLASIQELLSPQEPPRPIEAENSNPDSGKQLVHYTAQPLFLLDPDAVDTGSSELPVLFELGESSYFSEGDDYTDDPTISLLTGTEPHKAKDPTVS

[2] = molecular target: T2, Polyadenylate-binding protein 1 (Homo sapiens, UniProt P11940); assay: PABP1 MLLE–PAM2 binding inhibitor potency, dose response, biochemical, fluorescence polarization, FITC-PAM2 peptide (AID 602259); assay type: functional; conditions: read-out: IC50_Mean
[3] = molecular target: T2, Polyadenylate-binding protein 1; assay: PABP1 MLLE–PAM2 interaction inhibitors, dose response, miRNA deadenylation inhibitor project, biochemical, fluorescence polarization, Cy5-PAM2 peptide, secondary (AID 602260); assay type: functional; conditions: read-out: IC50_Mean
[4] = molecular target: T3, Zinc finger protein mex-5 (Caenorhabditis elegans, UniProt Q9XUB2); assay: MEX-5/TCR-2 RNA interaction inhibitors, dose response, biochemical, C. elegans, fluorescence polarization (AID 1960)
T3 sequence (Q9XUB2 whole entry): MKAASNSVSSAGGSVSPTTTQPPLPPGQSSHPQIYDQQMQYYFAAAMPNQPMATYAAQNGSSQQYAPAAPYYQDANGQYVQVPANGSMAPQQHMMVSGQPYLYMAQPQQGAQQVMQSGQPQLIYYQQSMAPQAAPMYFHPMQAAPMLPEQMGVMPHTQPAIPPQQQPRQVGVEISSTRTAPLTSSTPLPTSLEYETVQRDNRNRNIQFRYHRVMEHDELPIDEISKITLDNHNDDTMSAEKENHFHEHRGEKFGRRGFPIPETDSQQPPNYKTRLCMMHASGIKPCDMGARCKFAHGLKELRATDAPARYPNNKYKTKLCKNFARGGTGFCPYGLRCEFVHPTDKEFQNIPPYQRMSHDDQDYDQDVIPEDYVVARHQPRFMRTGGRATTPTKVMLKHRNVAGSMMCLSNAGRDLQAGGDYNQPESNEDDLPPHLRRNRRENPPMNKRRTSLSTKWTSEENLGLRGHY

[5] = molecular target: T4, RNA-binding protein pos-1 (Caenorhabditis elegans, UniProt G5EF15); assay: inhibitors of POS-1/mex-3 RNA binding, dose response, biochemical, fluorescence polarization (AID 1964);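 further: purified POS-1 fused to maltose binding protein made in E. coli; potency of compounds blocking POS-1 binding to fluorescent RNA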
T4 sequence (G5EF15 whole entry): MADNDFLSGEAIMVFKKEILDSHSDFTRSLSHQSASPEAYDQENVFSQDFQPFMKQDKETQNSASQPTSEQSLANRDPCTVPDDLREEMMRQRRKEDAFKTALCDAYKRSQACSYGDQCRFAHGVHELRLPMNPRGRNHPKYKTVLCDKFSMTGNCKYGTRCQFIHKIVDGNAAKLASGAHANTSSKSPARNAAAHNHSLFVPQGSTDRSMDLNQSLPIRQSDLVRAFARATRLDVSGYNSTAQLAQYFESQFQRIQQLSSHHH

[6] = molecular target: FAD-linked sulfhydryl oxidase ALR (Homo sapiens, UniProt P55789); assay: inhibitors of human ALR sulfhydryl oxidase, dose response, biochemical, H2O2 detection, luminescence, cherry-pick (AID 493248)
[7] = molecular target: T5, Rac GTPase-activating protein 1 (Homo sapiens, UniProt Q9H0H5); assay: MgcRacGAP GTPase-activating activity inhibitors, confirmation, biochemical, ADP Hunter fluorescence, primary and confirmatory (AID 624330); assay type: functional
T5 sequence (Q9H0H5 whole entry): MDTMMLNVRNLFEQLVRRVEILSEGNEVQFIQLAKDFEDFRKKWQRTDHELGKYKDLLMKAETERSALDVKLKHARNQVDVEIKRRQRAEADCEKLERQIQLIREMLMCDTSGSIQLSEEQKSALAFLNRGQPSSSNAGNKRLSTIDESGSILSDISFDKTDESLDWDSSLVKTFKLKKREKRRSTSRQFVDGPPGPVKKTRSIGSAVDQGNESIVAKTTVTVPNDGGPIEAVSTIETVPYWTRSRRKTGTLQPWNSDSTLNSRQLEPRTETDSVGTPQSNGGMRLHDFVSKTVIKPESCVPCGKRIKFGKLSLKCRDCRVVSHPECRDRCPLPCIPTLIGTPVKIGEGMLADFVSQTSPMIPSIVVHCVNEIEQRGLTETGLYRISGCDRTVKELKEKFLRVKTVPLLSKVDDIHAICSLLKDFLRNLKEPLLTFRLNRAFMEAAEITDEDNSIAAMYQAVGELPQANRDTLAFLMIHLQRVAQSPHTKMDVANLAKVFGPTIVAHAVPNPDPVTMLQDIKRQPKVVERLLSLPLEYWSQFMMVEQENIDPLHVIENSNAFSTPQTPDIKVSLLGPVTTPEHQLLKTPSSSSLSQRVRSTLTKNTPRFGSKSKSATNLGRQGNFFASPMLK

[8] = microbe, parasite or virus in culture; assay type: functional; conditions: Mycobacterium tuberculosis
Protein skinhead-1 = molecular target: T6, Protein skinhead-1 (Caenorhabditis elegans, UniProt P34707); assay type: functional
T6 sequence (P34707 whole entry): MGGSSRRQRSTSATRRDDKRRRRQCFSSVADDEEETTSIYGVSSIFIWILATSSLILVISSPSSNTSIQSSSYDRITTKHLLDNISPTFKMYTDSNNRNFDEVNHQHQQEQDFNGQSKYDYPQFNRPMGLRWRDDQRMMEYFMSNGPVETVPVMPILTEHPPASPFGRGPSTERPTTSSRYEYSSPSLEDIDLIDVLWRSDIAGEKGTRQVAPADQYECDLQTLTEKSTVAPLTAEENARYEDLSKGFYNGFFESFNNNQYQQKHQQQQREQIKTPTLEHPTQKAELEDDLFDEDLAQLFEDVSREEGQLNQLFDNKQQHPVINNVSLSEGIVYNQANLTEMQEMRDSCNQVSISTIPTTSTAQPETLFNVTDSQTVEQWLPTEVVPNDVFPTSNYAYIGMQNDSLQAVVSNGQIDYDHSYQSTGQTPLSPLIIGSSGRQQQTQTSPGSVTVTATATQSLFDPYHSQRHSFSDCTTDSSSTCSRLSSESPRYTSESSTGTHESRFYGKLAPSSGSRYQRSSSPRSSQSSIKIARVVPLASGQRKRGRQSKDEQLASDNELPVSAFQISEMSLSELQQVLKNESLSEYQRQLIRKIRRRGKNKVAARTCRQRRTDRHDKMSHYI

[9] = molecular target: T7, Ubiquitin-conjugating enzyme E2 N (Homo sapiens, UniProt P61088); assay type: functional;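 further: Dose-response confirmation in a TR-FRET assay detecting UBC13-driven polyubiquitin chain formation, inhibition measured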
T7 sequence (P61088 whole entry): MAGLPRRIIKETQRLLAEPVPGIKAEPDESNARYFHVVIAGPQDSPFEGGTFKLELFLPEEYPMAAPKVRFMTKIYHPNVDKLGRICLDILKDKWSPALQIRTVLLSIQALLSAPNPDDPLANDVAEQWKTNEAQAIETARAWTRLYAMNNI

[10] = molecular target: T1, Heat shock factor protein 1; assay: inhibition of MG132-induced HSE-luciferase signal, confirmation, cell-based, NIH3T3, luminescence, dose retest (AID 2382); assay type: functional;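 further: NIH3T3 fibroblasts with HSF1-driven luciferase reporter stressed by proteasome inhibitor MG132; luminescence from HSF1-driven luciferase expression after 8 hours of MG132 stress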
Cytochrome P450 3A4 = Cytochrome P450 3A4 (Homo sapiens, UniProt P08684);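 further: CYP3A4 tested as one member of a cytochrome P450 panel screen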
Cytochrome P450 2C9 = Cytochrome P450 2C9 (Homo sapiens, UniProt P11712)
[11] = inhibitors of SNCA 5'UTR-driven reporter translation, confirmation, H4 neuroglioma cells, luminescence (AID 1988); assay type: functional, cell-based
[12] = inhibitors of firefly luciferase expression or activity, dose response, H4 neuroglioma cells, luminescence (AID 1990); assay type: functional, cell-based
[13] = Luminescence Cell-Based Dose Response HTS to Identify Inhibitors of 5'UTR Stem-Loop Driven Prion Protein mRNA Translation in H4 Neuroglioblastoma Cells. [Related pubchem assays: 1827 (Project Summary), 1813 (Primary HTS)]; assay type: functional

T2 sequence (P11940 whole entry): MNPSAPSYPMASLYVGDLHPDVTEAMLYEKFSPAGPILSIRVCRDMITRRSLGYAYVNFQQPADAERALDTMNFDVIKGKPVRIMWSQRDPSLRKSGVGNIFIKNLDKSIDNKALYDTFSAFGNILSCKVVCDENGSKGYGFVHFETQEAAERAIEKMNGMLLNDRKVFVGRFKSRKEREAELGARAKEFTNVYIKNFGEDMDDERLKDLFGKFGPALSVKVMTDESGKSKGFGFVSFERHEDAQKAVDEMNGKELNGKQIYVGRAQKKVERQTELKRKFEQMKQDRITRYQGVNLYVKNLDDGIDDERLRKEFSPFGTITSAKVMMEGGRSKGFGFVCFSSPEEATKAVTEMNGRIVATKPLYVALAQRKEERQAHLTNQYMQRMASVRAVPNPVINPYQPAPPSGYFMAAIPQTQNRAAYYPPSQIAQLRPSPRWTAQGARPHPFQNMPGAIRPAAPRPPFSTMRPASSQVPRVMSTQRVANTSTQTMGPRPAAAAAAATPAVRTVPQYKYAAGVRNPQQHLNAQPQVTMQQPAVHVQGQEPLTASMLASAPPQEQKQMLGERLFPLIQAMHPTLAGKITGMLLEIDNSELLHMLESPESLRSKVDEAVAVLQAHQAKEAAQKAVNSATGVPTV
Sequence of Cytochrome P450 2C9 (P11712 whole entry): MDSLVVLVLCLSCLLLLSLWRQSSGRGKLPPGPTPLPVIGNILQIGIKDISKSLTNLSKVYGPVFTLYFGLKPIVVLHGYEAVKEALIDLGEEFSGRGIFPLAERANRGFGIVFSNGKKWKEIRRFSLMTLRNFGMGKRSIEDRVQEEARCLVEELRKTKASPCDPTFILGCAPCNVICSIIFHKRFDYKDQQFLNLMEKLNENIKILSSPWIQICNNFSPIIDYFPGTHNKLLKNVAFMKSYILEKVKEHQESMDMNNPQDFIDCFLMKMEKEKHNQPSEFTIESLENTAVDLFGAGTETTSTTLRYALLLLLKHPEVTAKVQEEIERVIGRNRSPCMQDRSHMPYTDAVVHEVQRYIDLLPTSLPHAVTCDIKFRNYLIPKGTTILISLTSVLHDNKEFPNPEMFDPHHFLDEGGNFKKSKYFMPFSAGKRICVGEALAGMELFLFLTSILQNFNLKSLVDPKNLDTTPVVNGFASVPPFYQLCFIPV
Sequence of Cytochrome P450 3A4 (P08684 whole entry): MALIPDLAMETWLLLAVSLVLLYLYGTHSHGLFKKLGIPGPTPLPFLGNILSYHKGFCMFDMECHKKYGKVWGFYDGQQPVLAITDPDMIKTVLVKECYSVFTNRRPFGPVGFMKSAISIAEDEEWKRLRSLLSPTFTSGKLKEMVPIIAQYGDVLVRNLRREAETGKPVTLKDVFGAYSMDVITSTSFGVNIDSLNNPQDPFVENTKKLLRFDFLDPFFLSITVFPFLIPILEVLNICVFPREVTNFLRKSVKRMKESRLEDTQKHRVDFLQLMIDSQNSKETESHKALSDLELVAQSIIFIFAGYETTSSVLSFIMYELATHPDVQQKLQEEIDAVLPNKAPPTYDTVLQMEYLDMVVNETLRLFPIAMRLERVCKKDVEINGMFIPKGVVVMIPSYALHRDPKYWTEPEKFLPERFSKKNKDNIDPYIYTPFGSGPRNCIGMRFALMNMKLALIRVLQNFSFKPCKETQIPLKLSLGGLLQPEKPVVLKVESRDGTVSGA
Sequence of FAD-linked sulfhydryl oxidase ALR (P55789 whole entry): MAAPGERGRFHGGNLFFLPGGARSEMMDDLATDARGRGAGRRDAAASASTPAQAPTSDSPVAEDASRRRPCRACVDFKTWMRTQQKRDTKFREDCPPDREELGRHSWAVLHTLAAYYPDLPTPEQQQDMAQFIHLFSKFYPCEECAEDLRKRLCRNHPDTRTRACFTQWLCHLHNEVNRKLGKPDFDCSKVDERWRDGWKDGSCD

## Cc1ccc2oc(C(=O)N3CCC(O)(c4cccc(C(F)(F)F)c4)CC3)c(C)c2c1
[1]
  EC50: 54.9 µM (active)

## NC(S)=NN=C1c2cc(S(=O)(=O)N3CCOCC3)ccc2-c2ccc(S(=O)(=O)N3CCOCC3)cc21
[2]
  IC50: > 66 µM (inactive)
[3]
  IC50: > 66 µM (inactive)

## COc1ccc(/C=C(\NC(=O)c2ccccc2)C(=O)N/N=C/c2sccc2C)cc1
[1]
  EC50: > 260 µM (inactive)

## CCOC(=O)c1c(N/C=C2/C(=O)NC(=O)N(c3cccc(C)c3)C2=O)sc2c1CCCC2
[4]
  EC50: > 300 µM (not active)
[5]
  EC50: > 300 µM (not active)

## Cc1cccc(-n2c(N)cc(=O)nc2SCC(=O)Nc2cc(C)on2)c1
[2]
  IC50: > 66 µM (inactive)
[3]
  IC50: > 66 µM (inactive)

## NC(=S)N=Nc1c(O)[nH]c2c(Cl)cc(Cl)cc12
[2]
  IC50: > 66 µM (inactive)
[3]
  IC50: > 66 µM (inactive)

## COc1cc(/C=N/NC(=O)c2cc3ccccc3[nH]2)ccc1O
[6]
  AC50: 0.393 µM (active)
[7]
  IC50: 17.8 µM (active)

## c1ccc(-c2ccccc2OCCOCCN2CCOCC2)cc1
[7]
  IC50: 58.9 µM (active)

## c1ccc(CN2CCN(Cc3ccc4ccccc4c3)CC2)cc1
[7]
  IC50: 123 µM (active)

## COc1ccc(C)cc1-n1c(=O)c2ccccc2c2ccccc2c1=O
[1]
  EC50: 11.7 µM (active)

## Cc1cccn2c(=O)c3cc(C(=O)N(C)C)n(C)c3nc12
[2]
  IC50: 39.3 µM (inactive)
[3]
  IC50: > 66 µM (inactive)

## COc1cccc(-c2nc(CSCC(=O)NCC3CCCO3)c(C)o2)c1 (centres undefined)
[2]
  IC50: > 66 µM (inactive)
[3]
  IC50: > 66 µM (inactive)

## Clc1ccc(Nc2ccc(-n3ccnc3)nn2)cc1Cl
[8]
  CC50: > 40 µM (active)
Protein skinhead-1
  IC50: > 100 µM (inactive)

## CCOC(=O)c1cnc2nc(C)ccc2c1O
[4]
  EC50: 11.8 µM (active)
[5]
  EC50: 13.7 µM (inconclusive)

## CN(C)c1ccc(NC(=O)c2ccc3nsnc3c2)cc1
[7]
  IC50: 65.4 µM (active)

## CSc1ccc(CCNC(=O)c2nn(C)c3c2CS(=O)(=O)c2ccccc2-3)cc1
[1]
  EC50: > 260 µM (inactive)

## O=C(c1ccccc1)c1ccc(C(=O)N2CCN(c3ccc(O)cc3)CC2)cc1
[7]
  IC50: 34 µM (active)

## CCC1CCCCN1CCCNC(=O)C1CCN(c2ncnc3c2nc2n3CCCCC2)CC1 (centres undefined)
[9]
  IC50: > 20 µM (inactive)

## Nc1nc(Cl)nc2ccc(Br)cc12
[9]
  IC50: > 20 µM (inactive)
[10]
  EC50: 5.71 µM (active)

## C#CCOCCOCCOCCNc1nc(N2CCN(C(=O)[C@H](CO)n3cc([C@@H](N)C(C)C)nn3)CC2)nc(N2CCN(C(=O)[C@H](CCCCN)n3cc([C@@H](N)[C@H](C)CC)nn3)CC2)n1
[9]
  IC50: > 20 µM (inactive)

## CCN(CC)S(=O)(=O)c1cccc(-c2nnc(S)n2/N=C/c2ccc(OC(F)F)cc2)c1
[7]
  IC50: 147 µM (active)

## COc1ccc(-c2cn(-c3ccc(C)cc3)c(=O)n2CC(=O)Nc2ccc(OC)cc2OC)cc1
Protein skinhead-1
  IC50: > 100 µM (inactive)

## Cc1c(C(=O)NCc2ccc3c(c2)cc(C)n3C)cccc1[N+](=O)[O-]
[2]
  IC50: > 66 µM (inactive)
[3]
  IC50: > 66 µM (inactive)

## COC(=O)c1ccc(=O)n(Cc2ccco2)c1
Protein skinhead-1
  IC50: > 100 µM (inactive)

## CCOC(=O)C1=C(c2ccccc2)NC(=O)NC1c1cc(Br)c(O)c(OC)c1 (centres undefined)
[1]
  EC50: > 260 µM (inactive)

## CCOC(=O)/C(C#N)=C/c1cn(CCC(=O)O)nc1-c1ccc(Cl)cc1
[1]
  EC50: > 260 µM (inactive)

## CCc1cc(/C(Cc2csc(C)n2)=N/O)c(O)cc1O
[7]
  IC50: 28.3 µM (active)

## Fc1ccc(-c2nnc(-c3ccc(F)cc3)o2)cc1
Protein skinhead-1
  IC50: > 100 µM (inactive)

## CCC(Sc1nc2nnc(C)c-2c(N)n1-c1ccc(C)c(Cl)c1)C(=O)N1CCOCC1 (centres undefined)
[1]
  EC50: > 260 µM (inactive)

## Nc1cc(O)nc(SCC(=O)Nc2ccc(S(=O)(=O)N3CCOCC3)cc2)n1
Cytochrome P450 3A4
  AC50: 28.2 µM (inconclusive)
Cytochrome P450 2C9
  AC50: 20 µM (inconclusive)
Protein skinhead-1
  IC50: > 100 µM (inactive)

## COc1cc(-c2cc(C(=O)Nc3ccc(S(N)(=O)=O)cc3)c3ccccc3n2)cc(OC)c1OC
[9]
  IC50: > 20 µM (inactive)

## CCCNc1cc(S)nc(N)n1
[2]
  IC50: > 66 µM (inactive)
[3]
  IC50: > 66 µM (inactive)

## Cc1ccc(/C=N/NC(=O)c2cccc(S(=O)(=O)Nc3ccccc3Cl)c2)o1
[1]
  EC50: > 260 µM (inactive)

## Cc1ccccc1C(=O)OC1OC(O)=C(Cl)/C1=N\c1ccccc1 (centres undefined)
[9]
  IC50: > 20 µM (inactive)

## CCOc1cc(/C=N/n2c(C)nnc2C)ccc1O
[7]
  IC50: 103 µM (active)

## CC1CCN(c2ccccc2NC(=S)NC(=O)C(C)(C)C)CC1
[11]
  EC50: > 120 µM (not active)
[2]
  IC50: > 66 µM (inactive)
[12]
  EC50: 16 µM (active)
[3]
  IC50: > 66 µM (inactive)
[13]
  EC50: > 120 µM (not active)
